We go through eight compounds from US4493838A, “Medicaments containing derivatives of 3-chloro-quinoline” (Pharmindustrie, priority 1980, dated 1985).

What is called pKi is −log10 of the Ki, conventionally taken in molar units. What is called pKd is the negative decadic logarithm of the Kd, by convention in mol/L.

pKd, pKi: −log10 of the molar value.

The target in one assay is cerebral receptor sites of the benzodiazepines. The assay can be described thus: Affinity for the cerebral receptor sites of the benzodiazepines (displacement of 3H-Diazepam, method of Mohler et al.). Particulars: displacement of 3H-Diazepam from its binding site; Ki calculated from IC50, C and KD. The text has this:
The products have been tested according to the method of Mohler et al., Life Science, 1977, 20, 2101, which is relied on herein.
Consider `Clc1c(-c2ccccc2)nc2ccccc2c1CCC1CCNCC1` [Example 5, 2-Phenyl-3-chloro-4-[2-(4-piperidyl)-ethyl]-quinoline], for which the negative logarithm of the Ki (pKi) was 6.30.
On the same count and under the same terms, next, `Cc1nc2ccccc2c(CCC2CCNCC2)c1Cl` [Example 4, 2-Methyl-3-chloro-4-[2-(4-piperidyl)-ethyl]-quinoline]: 6.00; `COc1ccc2ncc(Cl)c(CCC3CCNCC3)c2c1` [Example 3, 3-Chloro-6-methoxy-4-[2-(4-piperidyl)-ethyl]-quinoline]: 4.92; `Clc1cnc2ccccc2c1CCC1CCNCC1` [Example 1, 3-Chloro-4-[2-(4-piperidyl)-ethyl]-quinoline]: 5.70.
Still for that read-out and setting: the figure for `Cc1cccc2c(CC3CCNCC3)c(Cl)cnc12` [Example 8, 3-Chloro-8-methyl-4-[(4-piperidyl)-methyl]-quinoline] is 5.00; for `Clc1cc2ccccc2nc1CCC1CCNCC1` [Example 9, 3-Chloro-2-[2-(4-piperidyl)-ethyl]-quinoline] it is 5.30; for `Clc1cnc2ccccc2c1CC1CCNCC1` [Example 6, 3-Chloro-4-[(4-piperidyl)-methyl]-quinoline] it is 5.30.

Another assay shares this target.
Test: not given
Particulars: 3H-Diazepam; constant used in the formula for Ki; read-out: KD (constant of affinity); cited from earlier work.
With `CN1C(=O)CN=C(c2ccccc2)c2cc(Cl)ccc21` [3H Diazepam], the pKd was 5.56.
